Test results published in patent US20070254319A1, “IDENTIFICATION OF A CONS[…] CANCER STEM CELL” (University of Pittsburgh - Of the Commonwealth System of …, priority 2006, published 2007).

What was measured:
ABCG2 (BCRP) = test: Hoechst 33342 / R123 efflux (SP phenotype) in freshly isolated therapy naive non-small cell lung tumor cells; format: cell-based; settings: human, probe Hoechst 33342; inhibitor 10 microM; coincubation with Hoechst 33342 8 microM and R123 0.13 microM, 90 minutes at 37° C.
Procedure: Antibody stained suspended tumor cells were incubated simultaneously with the ABCG2/ABCB1 substrate Hoechst 33342 (8 microM) plus the ABCB1 substrate rhodamine 123 (R123, 0.13 microM) for 90 minutes at 37° C. Propidium iodide (PI, 10 microg/mL) was added immediately before sample acquisition. All events were gated on PI excluding (live), non-hematopoietic singlets. Five million events were collected. This basic experimental design has been repeated, with modifications, on 10 samples from untreated breast, ovarian, gastric and lung tumors with consistent results.
SP (top panels) and non-SP cells (bottom panels) were further characterized: A proportion of SP cells also excluded the ABCB1 substrate dye R123. These accounted for 29% of the SP cells (color-evented red in the dot plots) and accounted for almost all of the cells with low forward and side light scatter consistent with a resting morphology (FIG. 5). […] A significant proportion of both SP and non-SP cells expressed CD90, often in combination with epithelial specific antigen, HEA.

[1] = test system: parental K562 cells (native ABCG2); test: Hoechst 33342 efflux (side population, SP) in parental K562 cells with and without inhibitors; format: cell-based, human
Procedure: (§1) Cells were stained with anti-CD117 and incubated for 90 min in the presence of Ho33342 (8 microM, ˜5 microg/mL) and R123 (0.13 microM) with and without inhibitors. PI was added immediately before acquisition on the MoFlo flow cytometer in order to eliminate dead cells. Events were gated to exclude cell clusters and dead cells. The side population (SP) phenotype (blue gate) and R123 excluding cells (single parameter histogram left of the dashed line) were measured on CD117− (top panels) and CD117+ (bottom panels).
(§2) Here, the SP cells (within the blue gate in the left plots) is color evented blue, whereas SP negative cells are shown in gray.
(§3) Simultaneous measurement of R123 and Ho33342 dye efflux. […] Two cell lines were used, the parent line K562, which has a small subpopulation of CD117+ cells which constitutively express ABCG2 (BCRP1), and the ABCB1 (MDR1) transfectant line K562-G185 (39) (FIG. 9). G185 cells were maintained in vincristine (100 ng/mL) to select against ABCB1 negative cells.

[2] = test system: K562-G185 cells (ABCB1/MDR1 transfectant); test: Hoechst 33342 efflux (side population, SP) in MDR1-transfected K562-G185 cells with and without inhibitors; format: cell-based, human; settings: CD117- cells; Ho33342 8 microM and R123 0.13 microM, 90 min
Procedure: as §1, §2, §3

| Compound | inhibition at 90 min, 10 microM (ABCG2 (BCRP)) | effect on Ho33342 transport, in words ([1]; CD117+ population of parental K562 cells) | inhibition of the native SP phenotype, in words ([1]; CD117- cells, native SP 1.42% of cells, Ho33342 8 microM, 90 min) | effect on the side population (SP), in words [2] |
| --- | --- | --- | --- | --- |
| COc1ccc2c3c([nH]c2c1)[C@H](C=C(C)C)N1C(=O)[C@@H]2CCCN2C(=O)[C@@H]1C3 [fumitremorgin] | 75% | abrogates | equally inhibited | not affected |
| CC[C@]1(O)C[C@H]2CN(CCc3c([nH]c4ccccc34)[C@@](C(=O)OC)(c3cc4c(cc3OC)N(C=O)[C@H]3[C@@](O)(C(=O)OC)[C@H](OC(C)=O)[C@]5(CC)C=CCN6CC[C@]43[C@@H]65)C2)C1 [vincristine] | – | – | – | not affected |
